The values that follow come from US9023847B2, “Azaheterocyclic compounds” (Merck Patent GmbH, priority 2009, dated 2015).

Where only a bound is given, the exact number is not on record here.

The target of the first assay is T1, P70S6K (T412E mutant, Millipore) (Homo sapiens, UniProt P23443, T412E).
T1 construct: purchased Millipore
T1 sequence (P23443 whole entry T412E): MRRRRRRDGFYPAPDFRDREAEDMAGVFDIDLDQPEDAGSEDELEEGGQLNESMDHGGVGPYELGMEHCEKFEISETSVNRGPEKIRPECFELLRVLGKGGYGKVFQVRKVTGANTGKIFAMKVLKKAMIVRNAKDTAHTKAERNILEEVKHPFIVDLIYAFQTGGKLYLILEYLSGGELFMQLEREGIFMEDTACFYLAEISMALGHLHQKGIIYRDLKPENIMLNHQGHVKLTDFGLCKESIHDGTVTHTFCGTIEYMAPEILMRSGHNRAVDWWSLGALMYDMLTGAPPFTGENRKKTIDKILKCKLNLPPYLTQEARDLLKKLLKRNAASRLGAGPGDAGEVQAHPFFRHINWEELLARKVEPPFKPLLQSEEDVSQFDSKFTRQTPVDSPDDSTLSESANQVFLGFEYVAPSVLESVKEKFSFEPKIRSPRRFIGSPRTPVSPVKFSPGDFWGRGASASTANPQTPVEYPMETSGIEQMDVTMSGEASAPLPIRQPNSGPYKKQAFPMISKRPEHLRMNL
The assay can be described thus: p70S6K enzyme assay. The assay is classed as biochemical. The settings on record: class symbol; 3 nM P70S6K, 24 μM ATP; read-out: IC50 (p70S6K). As to the method:
P70S6K inhibitor compounds are diluted and plated in 96 well plates. A reaction mixture including the following components is then added to the compound plate to initiate the enzyme reaction; P70S6K (3 nM, T412E mutant, Millipore) is mixed with 24 μM ATP in an assay buffer containing 100 mM Hepes (pH 7.5), 5 mM MgCl2, 1 mM DTT, 0.015% Brij and 1 μM of the substrate peptide FITC-AHA-AKRRRLSSLRA-OH (derived from the S6 ribosomal protein sequence, FITC=fluorescein isothiocyanate, AHA=6-aminohexanoic acid). The reaction is incubated for 90 min at 25° C., before the addition of 10 mM EDTA to stop the reaction. The proportion of substrate and product (phosphorylated) peptide is analysed on a Caliper Life Sciences Lab Chip 3000, using a pressure of −1.4 psi, and upstream and downstream voltages of −3000 and −700 respectively. Product peaks are resolved before substrate peaks on the resulting chromatograms.
As to `O=C(NCCS(=O)(=O)Cc1ccccc1)c1sccc1Nc1ccnc2[nH]ccc12` [Example 69, 3-(1H-Pyrrolo[2,3-b]pyridin-4-ylamino)-thiophene-2-carboxylic acid (2-phenylmethanesulfonyl-ethyl)-amide], the 50% inhibitory concentration (IC50) fell in the range of 0.1 to 1 µM.

On to `O=C(NCCNC(=O)c1sccc1Nc1ccnc2[nH]ccc12)c1ccccc1` [Example 70, 3-(1H-Pyrrolo[2,3-b]pyridin-4-ylamino)-thiophene-2-carboxylic acid (2-benzoylamino-ethyl)-amide], for which the 50% inhibitory concentration (IC50) is less than 0.1 µM.

For the compound `O=C(NCCNS(=O)(=O)c1ccccc1)c1sccc1Nc1ccnc2[nH]ccc12` [Example 71, 3-(1H-Pyrrolo[2,3-b]pyridin-4-ylamino)-thiophene-2-carboxylic acid (2-benzenesulfonylamino-ethyl)-amide], the IC50 was 0.1 to 1 µM.

Take `O=C(NCCNCc1ccccc1)c1ccsc1Nc1ccnc2[nH]ccc12` [Example 72, 2-(1H-Pyrrolo[2,3-b]pyridin-4-ylamino)-thiophene-3-carboxylic acid (2-benzylamino-ethyl)-amide]: the IC50 is less than 0.1 µM.

With `O=C(CNC(=O)c1sccc1Nc1ccnc2[nH]ccc12)NCc1ccccc1` [Example 73, 3-(1H-Pyrrolo[2,3-b]pyridin-4-ylamino)-thiophene-2-carboxylic acid (benzylcarbamoyl-methyl)-amide], the IC50 is 0.1 to 1 µM.

On to `O=C(NCCNCc1ccncc1)c1sccc1Nc1ccnc2[nH]ccc12` [Example 74, 3-(1H-Pyrrolo[2,3-b]pyridin-4-ylamino)-thiophene-2-carboxylic acid {2-[(pyridin-4-ylmethyl)-amino]-ethyl}-amide], for which the IC50 fell in the range of 0.1 to 1 µM.

Consider `O=C(N[C@H](CO)c1ccccc1)c1ccsc1Nc1ccnc2[nH]ccc12` [Example 75, 2-(1H-Pyrrolo[2,3-b]pyridin-4-ylamino)-thiophene-3-carboxylic acid ((S)-2-hydroxy-1-phenyl-ethyl)-amide], for which the IC50 was less than 0.1 µM.

With `[N-]=[N+]=NCC(NC(=O)c1sccc1Nc1ccnc2[nH]ccc12)c1ccccc1` (centres unmarked) [Example 76, 3-(1H-Pyrrolo[2,3-b]pyridin-4-ylamino)-thiophene-2-carboxylic acid (2-azido-1-phenyl-ethyl)-amide], the IC50 is less than 0.1 µM.

As to `NCC(NC(=O)c1sccc1Nc1ccnc2[nH]ccc12)c1ccccc1` (centres unmarked) [Example 77, 3-(1H-Pyrrolo[2,3-b]pyridin-4-ylamino)-thiophene-2-carboxylic acid (2-amino-1-phenyl-ethyl)-amide], the half-inhibitory concentration (IC50) was less than 0.1 µM.

As for `NC(CNC(=O)c1sccc1Nc1ccnc2[nH]ccc12)c1ccccc1` (centres unmarked) [Example 78, 3-(1H-Pyrrolo[2,3-b]pyridin-4-ylamino)-thiophene-2-carboxylic acid (2-amino-2-phenyl-ethyl)-amide], the IC50 was less than 0.1 µM.

Consider `Cc1cc(Nc2ccnc3[nH]ccc23)c(C(=O)NCCNCc2ccccc2)s1` [Example 79, 5-Methyl-3-(1H-pyrrolo[2,3-b]pyridin-4-ylamino)-thiophene-2-carboxylic acid (2-benzylamino-ethyl)-amide], for which the IC50 fell in the range of 1 to 10 µM.

As to `Cc1cc(Nc2ccnc3[nH]ccc23)c(C(=O)N[C@H](CO)c2ccccc2)s1` [Example 80, 5-Methyl-3-(1H-pyrrolo[2,3-b]pyridin-4-ylamino)-thiophene-2-carboxylicacid ((S)-2-hydroxy-1-phenyl-ethyl)-amide], the IC50 was in the range of 0.1 to 1 µM.

For `O=C(N[C@@H](CO)Cc1ccccc1)c1sccc1Nc1ccnc2[nH]ccc12` [Example 81, 3-(1H-Pyrrolo[2,3-b]pyridin-4-ylamino)-thiophene-2-carboxylic acid ((R)-1-benzyl-2-hydroxy-ethyl)-amide], the IC50 was 1 to 10 µM.

With `O=C(N[C@@H](CO)[C@@H](O)c1ccccc1)c1sccc1Nc1ccnc2[nH]ccc12` [Example 84, 3-(1H-Pyrrolo[2,3-b]pyridin-4-ylamino)-thiophene-2-carboxylic acid ((1S,2S)-2-hydroxy-1-hydroxymethyl-2-phenyl-ethyl)-amide], the IC50 lay in the range of 1 to 10 µM.

Turning to `COC(=O)C(CO)NC(=O)c1sccc1Nc1ccnc2[nH]ccc12` (centres unmarked) [Example 85, 3-Hydroxy-2-{[3-(1H-pyrrolo[2,3-b]pyridin-4-ylamino)-thiophene-2-carbonyl]-amino}-propionic acid methyl ester], the IC50 was in the range of 0.1 to 1 µM.

Take `O=C(N[C@H](CO)Cc1ccccc1)c1sccc1Nc1ccnc2[nH]ccc12` [Example 86, 3-(1H-Pyrrolo[2,3-b]pyridin-4-ylamino)-thiophene-2-carboxylic acid ((S)-1-benzyl-2-hydroxy-ethyl)-amide]: the concentration for half-maximal inhibition (IC50) was less than 0.1 µM.

Turning to `Nc1cccc(CNC(=O)c2sccc2Nc2ccnc3[nH]ccc23)c1` [Example 87, 3-(1H-Pyrrolo[2,3-b]pyridin-4-ylamino)-thiophene-2-carboxylic acid 3-amino-benzylamide], the 50% inhibitory concentration (IC50) was less than 0.1 µM.

For `O=C(NC(CO)C(=O)NCc1ccccc1)c1sccc1Nc1ccnc2[nH]ccc12` (centres unmarked) [Example 88, 3-(1H-Pyrrolo[2,3-b]pyridin-4-ylamino)-thiophene-2-carboxylic acid (1-benzylcarbamoyl-2-hydroxy-ethyl)-amide], the 50% inhibitory concentration (IC50) lay in the range of 0.1 to 1 µM.

With `O=C(NC(CO)C(=O)NCc1ccc(Cl)c(C(F)(F)F)c1)c1sccc1Nc1ccnc2[nH]ccc12` (centres unmarked) [Example 89, 3-(1H-Pyrrolo[2,3-b]pyridin-4-ylamino)-thiophene-2-carboxylic acid [1-(4-chloro-3-trifluoromethyl-benzylcarbamoyl)-2-hydroxy-ethyl]-amide], the 50% inhibitory concentration (IC50) is 0.1 to 1 µM.

Consider `O=C(NCCNCc1ccc(Cl)c(C(F)(F)F)c1)c1sccc1Nc1ccnc2[nH]ccc12` [Example 90, 3-(1H-Pyrrolo[2,3-b]pyridin-4-ylamino)-thiophene-2-carboxylic acid [2-(4-chloro-3-trifluoromethyl-benzylamino)-ethyl]-amide], for which the IC50 was less than 0.1 µM.

In the case of `CC(C)(C)OC(=O)N1CCCC(NC(=O)c2sccc2Nc2ccnc3[nH]ccc23)C1` (centres unmarked) [Example 91, 3-{[3-(1H-Pyrrolo[2,3-b]pyridin-4-ylamino)-thiophene-2-carbonyl]-amino}-piperidine-1-carboxylic acid tert-butyl ester], the IC50 lay within 0.1 to 1 µM.

For `CC(C)(C)OC(=O)N1CCC[C@@H]1CNC(=O)c1sccc1Nc1ccnc2[nH]ccc12` [Example 92, (R)-2-({[3-(1H-Pyrrolo[2,3-b]pyridin-4-ylamino)-thiophene-2-carbonyl]-amino}methyl)pyrrolidine-1-carboxylic acid tert-butyl ester], the IC50 fell in the range of 0.1 to 1 µM.

For the compound `O=C(NC[C@H]1CCCN1)c1sccc1Nc1ccnc2[nH]ccc12` [Example 93, 3-(1H-Pyrrolo[2,3-b]pyridin-4-ylamino)-thiophene-2-carboxylic acid ((R)-1-pyrrolidin-2-ylmethyl)-amide], the IC50 is 0.1 to 1 µM.

Turning to `COc1cccc(CNC(=O)c2sccc2Nc2ccnc3[nH]ccc23)c1` [Example 94, 3-(1H-Pyrrolo[2,3-b]pyridin-4-ylamino)-thiophene-2-carboxylic acid 3-methoxybenzylamide], the concentration for half-maximal inhibition (IC50) was less than 0.1 µM.

Turning to `COc1cc(CNC(=O)c2sccc2Nc2ccnc3[nH]ccc23)cc(OC)c1` [Example 95, 3-(1H-Pyrrolo[2,3-b]pyridin-4-ylamino)-thiophene-2-carboxylic acid 3,5-dimethoxy-benzylamide], the concentration for half-maximal inhibition (IC50) fell in the range of 0.1 to 1 µM.

Regarding `CC(C)[C@@H](CO)NC(=O)c1sccc1Nc1ccnc2[nH]ccc12` [Example 96, 3-(1H-Pyrrolo[2,3-b]pyridin-4-ylamino)-thiophene-2-carboxylic acid ((S)-1-hydroxymethyl-2-methyl-propyl)-amide], the half-maximal inhibitory concentration (IC50) lay within 0.1 to 1 µM.

`CC(C)C[C@@H](CO)NC(=O)c1sccc1Nc1ccnc2[nH]ccc12` [Example 97, 3-(1H-Pyrrolo[2,3-b]pyridin-4-ylamino)-thiophene-2-carboxylic acid ((S)-1-hydroxymethyl-3-methyl-butyl)-amide]: the half-maximal inhibitory concentration (IC50) is 0.1 to 1 µM.

As for `O=C(NCc1ccc(Cl)c(C(F)(F)F)c1)c1sccc1Nc1ccnc2[nH]ccc12` [Example 98, 3-(1H-Pyrrolo[2,3-b]pyridin-4-ylamino)-thiophene-2-carboxylic acid 4-chloro-3-trifluoromethyl-benzylamide], the IC50 was less than 0.1 µM.

In the case of `O=C(NCC(O)c1ccccc1)c1sccc1Nc1ccnc2[nH]ccc12` (centres unmarked) [Example 99, 3-(1H-Pyrrolo[2,3-b]pyridin-4-ylamino)-thiophene-2-carboxylic acid (2-hydroxy-2-phenyl-ethyl)-amide], the IC50 was less than 0.1 µM.

For the compound `O=C(Nc1cccc(CNC(=O)c2sccc2Nc2ccnc3[nH]ccc23)c1)c1ccc(F)cc1` [Example 100, 3-(1H-Pyrrolo[2,3-b]pyridin-4-ylamino)-thiophene-2-carboxylic acid 3-(4-fluoro-benzoylamino)-benzylamide], the IC50 was less than 0.1 µM.

The assay is the same for the next values; noted with them: numeric bound printed under the example; read-out: IC50 (p70S6K).
As for `O=C(NCCNCc1ccccc1)c1sc2ccccc2c1Nc1ccnc2[nH]ccc12` [Example 82, 3-(1H-Pyrrolo[2,3-b]pyridin-4-ylamino)-benzo[b]thiophene-2-carboxylic acid (2-benzylamino-ethyl)-amide], the IC50 was more than 10 µM.

In the case of `O=C(N[C@H](CO)c1ccccc1)c1sc2ccccc2c1Nc1ccnc2[nH]ccc12` [Example 83, 3-(1H-Pyrrolo[2,3-b]pyridin-4-ylamino)-benzo[b]thiophene-2-carboxylic acid ((S)-2-hydroxy-1-phenyl-ethyl)-amide], the 50% inhibitory concentration (IC50) was more than 10 µM.
